The target of this assay is hCSE (Homo sapiens, UniProt P32929). Briefly: H2S in HEK293T cells transiently expressing hCSE (AzMC probe). Format: cell-based. As to conditions: 10 μM, 8 h. As to the method:
HEK293T cells were transiently transfected with empty vector (EV, i and ii), hCBS-FL (iii and iv) or hCSE (v and vi) plasmids, followed by incubation with DMSO (i–iii and v) or 10 μM CH004 (iv and vi) for 8 h before staining with 50 μM AzMC, a H2S-specific probe (“Materials and Methods” section). For larger fluorescent and bright-field images, please see Supplementary Figure 4. The expression levels of hCBS or hCSE in HEK293T cells after transient transfections were determined by western blotting using an anti-CBS antibody (3E1, 1:2000; Abnova) or anti-CSE antibody (1:500, GeneTex). The densities of protein bands for hCBS or hCSE in the blots were quantified with the ImageJ software (National Institutes of Health, Bethesda, MD, USA) and expressed as ratios of respective control (EV group). […] The fluorescent images of the H2S (blue) were accordingly quantified (“Materials and Methods” section) with ImageJ. […] A representative fluorescence image from three independent experiments is shown. […]
H2S levels in living cells were detected using a H2S-specific fluorescent probe according to a protocol described previously[31],[55]. […] After incubation with 50 μM AzMC at 37 °C for 30 min, the cells were washed 4 times with PBS, and the fluorescent images were recorded with excitation by 405 nm laser by using a A1Si (Nikon) confocal microscope. […]

Sequence of hCSE (P32929 whole entry): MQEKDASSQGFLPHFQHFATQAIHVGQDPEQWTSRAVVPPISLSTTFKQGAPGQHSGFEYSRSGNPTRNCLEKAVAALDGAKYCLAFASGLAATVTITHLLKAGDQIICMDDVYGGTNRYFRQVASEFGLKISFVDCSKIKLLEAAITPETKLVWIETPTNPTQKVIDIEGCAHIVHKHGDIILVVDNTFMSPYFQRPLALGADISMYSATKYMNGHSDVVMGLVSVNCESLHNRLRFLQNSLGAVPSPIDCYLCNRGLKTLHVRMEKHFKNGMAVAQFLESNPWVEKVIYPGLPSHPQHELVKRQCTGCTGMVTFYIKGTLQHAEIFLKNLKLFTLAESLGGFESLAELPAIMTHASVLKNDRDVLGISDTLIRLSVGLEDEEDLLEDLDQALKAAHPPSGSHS

Turning to `Cn1nc(Cc2ccccc2)nc2c(=O)n(C)c(=O)nc1-2` [CH004, 3-benzyl-1,6-dimethylpyrimido[5,4-e][1,2,4]triazine-5,7(1H,6H)-dione], the “effect on production of H2S” value is “did not interfere”.
